# Experiments:
# [1] = tested on: GM1b on the plasma membrane of OV2944 cells; assay: GM1b inhibition assay in relation to binding of partial peptide p6 to OV2944 cells; set-up: species or system mouse; conditions: 5 μM TMR-labeled p6
# Protocol: Cultured OV2944 cells were fixed on a glass plate (4% paraformaldehyde/phosphate buffer, room temperature, 10 minutes), and treated with sheep serum. […] After washing, analysis was carried out using a confocal microscope (Carl Zeiss).
# An experiment was carried out in the same manner as in Experimental Example 18-1 except that GM1b was absent.
# Further, an experiment was carried out in the same manner as in Experimental Example 18-1 and Experimental Example 18-2 for cases where GM1b was used alone at a concentration of 0, 10, or 100 μM, where GT1c was used alone at a concentration of 100 μM, and where GM1b and GT1c were used in combination at a concentration of 100 μM each.
# [2] = tested on: OV2944 cells; assay: Cell migration assay; type: cell-based, mouse; conditions: 5 μM; versus p1 and no peptide
# Protocol: The plasmid vector pDsRed2-C1 (Clontech), which expresses a fluorescent protein (DsRed2), was transfected into cells. […] The observation was carried out for 12 to 37 cells. Statistical analysis was carried out by unpaired Student t-test in order to analyze a significant difference.
# An experiment was carried out in the same manner as in Experimental Example 8-1 except that no partial peptide was added.
# [3] = tested on: OV2944 cells; assay: Cell binding experiment (fluorescently labeled protein/peptide, confocal microscope); set-up: species or system mouse
# Protocol: The OV2944-HM-1 cell line (which may be referred to as “OV2944 cells” or, simply, “cells”), which is a commonly used cell line, was used. OV2944 cells were obtained from RIKEN BioResource Center (Cell No. RCB1483), and cultured in DMEM medium (+10% FBS) according to a conventional method.
# Cultured cells were fixed on a glass plate (4% paraformaldehyde/phosphate buffer, room temperature, 10 minutes), and treated with sheep serum. Thereafter, mouse dicalcin (5 μM) fluorescently labeled with tetramethylrhodamine (TMR) was reacted with the cells in the presence of 1 mM CaCl2 (4° C., overnight). After washing with TBS buffer, analysis was carried out using a confocal microscope (Carl Zeiss). Further, cell nuclei were stained with DAPI.
# An experiment was carried out in the same manner as in Experimental Example 1-1 except that the reaction was carried out in the presence of 1 mM EGTA (which may be referred to as “in the absence of calcium”).
# An experiment was carried out in the same manner as in Experimental Example 1-1 except that immunostaining was carried out using an anti-mouse dicalcin antibody (Catalog No. MAB5167, R&D Systems) as a primary antibody, and an Alexa Fluor (registered trademark) 594-labeled anti-rat IgG antibody (Catalog No. A11007, Invitrogen) as a secondary antibody.
# An experiment was carried out in the same manner as in Experimental Example 1-1 except that each of partial peptides p1 to p7 (5 μM) fluorescently labeled with rhodamine was used.
# [4] = tested on: Erk1/2; assay: Suppression of Erk1/2 signaling (Western blotting, pErk/Erk); type: cell-based, mouse
# From the text: The OV2944 cells were extracted and sonicated, and then analyzed for the activity of Erk1/2 by Western blotting. An antibody (Cell Signaling) against Erk1/2 protein in the phosphorylated state (that is, the activated state) (pErk1/2), or an antibody (Santa Cruz) against total Erk1/2 protein including the protein in the phosphorylated state and the protein in the dephosphorylated state (Erk1/2), was used therefor. The ratio between pErk1/2 and Erk1/2 (pErk/Erk) in the Western blot image was calculated, and the data were normalized by taking the value at time 0 as 1.
# [5] = tested on: OV2944 cells; assay: Analysis of survival after cell transfer (Kaplan Meier); type: in vivo, mouse
# Protocol: (§1) The purified OV2944 cells expressing the fluorescent protein tdTomato were transferred into the abdominal cavity of mice (B6C3F1 strain, 9 weeks old, female, CLEA Japan, Inc.) (1×10^5 cells/mouse). […] On Day 21, the abdominal organs were removed, and OV2944 cells expressing the fluorescent protein tdTomato in the liver were observed using a fluorescence stereomicroscope OV110 (Olympus Corporation).
# Intraperitoneal injection was carried out in the same manner as in Experimental Example 13-1 and Experimental Example 13-2, and survival analysis was carried out thereafter to provide Experimental Example 14-1 and Experimental Example 14-2. For the survival curve according to the Kaplan Meier method, a significant difference was analyzed by log-rank test.
# [6] = tested on: OV2944 cells; assay: Cell invasion assay (Matrigel Invasion Chamber); type: cell-based, mouse
# Protocol: Cell invasion was analyzed using a BD BioCoat (registered trademark) Matrigel Invasion Chamber (Becton, Dickinson and Company). First, a certain amount of cells (about 1×10^5 cells/well) were treated with 2 μM, 8 μM, or 20 μM mouse dicalcin at room temperature for 20 minutes.
# The treated cells were washed by centrifugation treatment, and then plated in the upper chamber of a transwell preliminarily coated with Matrigel, followed by performing culture using DMEM (+10% FBS) as a medium.
# About 16 hours later, the invading cells that had migrated into the lower chamber were fixed using 4% paraformaldehyde/phosphate buffer at room temperature for 10 minutes, and then stained with crystal violet, followed by excision of the membrane, embedding on a slide, and counting of the cell number.
# [7] = tested on: OV2944 cells expressing the fluorescent protein tdTomato; assay: Observation of metastasis to liver after intraperitoneal cell transfer; type: in vivo, mouse; conditions: 3 nmoles/two days, Day 21, versus control peptide p1
# Protocol: The plasmid vector ptdTomato-C1 (Clontech), which expresses the fluorescent protein tdTomato, was transfected into OV2944 cells, and, 24 to 48 hours later, the cells were suspended in phosphate buffer. Using a flow cytometer (FACS Aria, BD Biosciences), the OV2944 cells expressing the fluorescent protein tdTomato shown in FIG. 13A to FIG. 13C were purified.
# as §1
# FIG. 15-1B focuses on cell colonies. […] The number of colonies was counted, and a significant difference was analyzed by unpaired Student t-test.
# [8] = Glycolipid sugar chain array binding experiment; conditions: 5 μM fluorescently labeled, 4° C. overnight
substance,measurement,setting,value
"partial peptide of mouse dicalcin, SEQ ID NO: 17, QLDFQEFLNLI (listed as Mus musculus) [p6]",binding to OV2944 cell / plasma membrane in presence of GM1b,"[1]; GM1b in the medium (10, 100 μM)",remarkably decreased
same,binding ability to OV2944 cells in presence of GT1c,[1]; GT1c 100 μM,did not change
same,cell migration (migration distance),[2],suppresses migration of the cells
same,cell-binding ability (fluorescence intensity),"[3]; 5 μM rhodamine-labeled partial peptides, ranking",highest cell-binding ability
same,site of binding on cells,"[3]; 5 μM, CD44 as plasma membrane control",binds to the plasma membranes of cells
same,Erk1/2 activity (pErk/Erk),"[4]; 5 μM p6 alone (absence of GM1b), 0-30 minutes",suppresses the Erk1/2 activity
same,Erk1/2 activity (pErk/Erk) with GM1b present,[4]; p6 and GM1b present,disappearance of the Erk-suppressing action
same,increase in average number of days of survival,[5]; Experimental Example 14-1 relative to 14-2 (p1),21%
same,average number of days of survival,"[5]; intraperitoneal, 3 nmoles/two days",38.5 days
same,survival rate of mice,"[5]; intraperitoneal, 3 nmoles/two days, versus control peptide p1, log-rank test",significantly suppresses a decrease in the survival rate
same,"cell invasion, ranking of suppression","[6]; 8 μM each, versus 10 μM BSA",suppresses cell invasion at the highest level
same,"cell invasion, concentration dependence","[6]; 0.2, 0.8, 2, 8, 20 μM",suppressed cell invasion in a concentration-dependent manner
same,number of colonies in the liver,[7],significantly smaller
same,target molecule candidate by binding to glycolipid sugar chains,[8],GM1b ganglioside was suggested

# — US11696938B2, “Human cancer cell metastasis inhibitory agent and human cancer cell determination agent” (priority 2017, dated 2023)
